Assay results reported in PubChem BioAssay (NCI).
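96-well plates; 48 h exposure; 5 concentrations. Endpoints by linear interpolation between flanking doses. Not reached: highest tested concentration assigned. TGI: total growth inhibition.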

What was measured:
Test in all cases: growth of human tumour cells (NCI), 48 h
NCI-H226 lung = system: NCI-H226 lung
HOP-92 NSCLC = system: HOP-92 NSCLC
EKVX NSCLC = system: EKVX NSCLC
SF-268 CNS = system: SF-268 CNS
MOLT-4 leukemia = system: MOLT-4 leukemia
ACHN renal = system: ACHN renal
CCRF-CEM leukemia = system: CCRF-CEM leukemia
M14 melanoma = system: M14 melanoma
DMS 114 small cell lung = system: DMS 114 small cell lung
NCI-H522 lung = system: NCI-H522 lung
IGROV1 ovarian = system: IGROV1 ovarian
SK-MEL-2 melanoma = system: SK-MEL-2 melanoma
K-562 leukemia = system: K-562 leukemia
KM12 colon = system: KM12 colon
HCT-15 colon = system: HCT-15 colon
RPMI-8226 leukemia = system: RPMI-8226 leukemia
HT29 colon = system: HT29 colon
A549 NSCLC = system: A549 NSCLC
DLD-1 colon = system: DLD-1 colon
NCI-H23 lung = system: NCI-H23 lung
SK-OV-3 ovarian = system: SK-OV-3 ovarian
UACC-62 melanoma = system: UACC-62 melanoma
LXFL 529 NSCLC = system: LXFL 529 NSCLC
CAKI-1 renal = system: CAKI-1 renal
OVCAR-4 ovarian = system: OVCAR-4 ovarian
HOP-62 NSCLC = system: HOP-62 NSCLC
U251 CNS = system: U251 CNS
SNB-75 CNS = system: SNB-75 CNS
SF-539 CNS = system: SF-539 CNS
OVCAR-5 ovarian = system: OVCAR-5 ovarian
OVCAR-8 ovarian = system: OVCAR-8 ovarian
SNB-78 CNS = system: SNB-78 CNS
OVCAR-3 ovarian = system: OVCAR-3 ovarian
LOX IMVI melanoma = system: LOX IMVI melanoma
SF-295 CNS = system: SF-295 CNS
MALME-3M melanoma = system: MALME-3M melanoma
UO-31 renal = system: UO-31 renal
SN12C renal = system: SN12C renal
DMS 273 small cell lung = system: DMS 273 small cell lung
HCT-116 colon = system: HCT-116 colon
786-0 renal = system: 786-0 renal
M19-MEL melanoma = system: M19-MEL melanoma
NCI-H460 lung = system: NCI-H460 lung
SR leukemia = system: SR leukemia
COLO 205 colon = system: COLO 205 colon
HL-60(TB) leukemia = system: HL-60(TB) leukemia
SW-620 colon = system: SW-620 colon
SK-MEL-5 melanoma = system: SK-MEL-5 melanoma
TK-10 renal = system: TK-10 renal
HOP-18 NSCLC = system: HOP-18 NSCLC
UACC-257 melanoma = system: UACC-257 melanoma
A498 renal = system: A498 renal
SK-MEL-28 melanoma = system: SK-MEL-28 melanoma
RXF 393 renal = system: RXF 393 renal
HCC-2998 colon = system: HCC-2998 colon
XF 498 CNS = system: XF 498 CNS
SNB-19 CNS = system: SNB-19 CNS
KM20L2 colon = system: KM20L2 colon
RXF-631 renal = system: RXF-631 renal

Measured: TGI

COc1cc(C)c2c(c1)CN1CN2Cc2cc(OC)cc(C)c21
75.1 µM: DMS 114 small cell lung
54.2 µM: OVCAR-3 ovarian
64.2 µM: HL-60(TB) leukemia
14.4 µM: SK-MEL-5 melanoma
79 µM: UACC-62 melanoma
46.3 µM: SNB-75 CNS
85.5 µM: UO-31 renal
not listed: TK-10 renal | HOP-18 NSCLC | UACC-257 melanoma | A498 renal | SK-MEL-28 melanoma | RXF 393 renal | HCC-2998 colon | XF 498 CNS | SNB-19 CNS | KM20L2 colon | RXF-631 renal
> 100 µM: all other assays above

Cc1c(C)c([N+](=O)[O-])c2c(c1N)C(=O)c1ccccc1C2=O
not listed: CAKI-1 renal | OVCAR-4 ovarian | NCI-H460 lung | RXF-631 renal
> 100 µM: all other assays above

COC(=O)C1CC(c2ccc(OC)c(OC)c2)OC1=O (mixture of isomers)
not listed: SK-MEL-2 melanoma | HOP-18 NSCLC
> 100 µM: all other assays above

Cc1cc2c(c(C(=O)O)c1C)-c1cccc(Cl)c1C2=O
not listed: HOP-92 NSCLC | SF-539 CNS | HCT-116 colon | SR leukemia | HL-60(TB) leukemia | HOP-18 NSCLC | A498 renal | RXF-631 renal
> 100 µM: all other assays above
